Earlier results, collected in article PMC6831561, “Pharmacological and Behavioral Effects of the Synthetic Cannabinoid AKB48 in Rats” (Frontiers in Neuroscience, 2019).
Where two headings read alike, the source gives them in different places.

System: extracellular DA levels
Settings: ref De Luca et al., 2015, cited from earlier work

CCCCCn1cc(C(=O)c2cccc3ccccc23)c2ccccc21 [JWH-018, Naphthalen-1-yl-(1-pentylindol-3-yl)methanone]
max increase of DA in the NAc shell (JWH-018 0.25 mg/kg ip, from 20 to 70 min, Miliano et al., 2016): about 60% | DA release in the NAc shell (JWH-018 0.25 mg/kg): increased DA release | DA release in the NAc shell (JWH-018 high doses (1 and 3 mg/kg)): no effect | DA release in the NAc shell (JWH-018 lower (0.125 mg/kg) and higher (0.50 mg/kg) doses): ineffective
